Test results as given in patent publication US20090076136A1, “THERAPEUTIC AGENT” (priority 2003, published 2009).
Read-outs that look alike come from different tables or passages of the source.

Experiments:
[1] = tested on: mature adipocytes (3T3-L1 cells); experiment: Enhancing action on glucose uptake: 2-deoxyglucose uptake into mature adipocytes; assay type: cell-based
Method: The induction of differentiation into mature adipocytes was carried out by partially modifying the method of Rubin C. S. et al. (JBC. 253 7570-7578, 1978). 3T3-L1 cells (ATCC CCL-92.1) were suspended in a 10% calf serum (manufactured by ICN)-containing Dulbecco's modified Eagle's medium (manufactured by Sigma, D6046) containing 200 μM ascorbic acid so as to have a density of 4×10^3 cells/mL, and the suspension was put in each well of a 12-well microtiter plate in an amount of 2 mL per well. The cells were cultured at 37° C. for 7 days in the presence of 5% carbon dioxide gas. On the seventh day, the medium was exchanged with […] of a 10% fetal bovine serum (manufactured by GIBCO)-containing Dulbecco's modified Eagle's medium containing 200 μM ascorbic acid, 0.25 μM dexamethasone, 10 μg/mL insulin (manufactured by TAKARA BIO INC.) and 0.5 mM 3-isobutyl-1-methylxanthine (manufactured by Nacalai Tesque, Inc., 19624-86). After 45 hours, the medium was exchanged with 2 mL of a 10% fetal bovine serum-containing Dulbecco's modified Eagle's medium containing 200 μM ascorbic acid and 5 μg/mL insulin. The medium was exchanged on after 2 days and 5 days, and the cells were cultured for 7 days, to give mature adipocytes.
As the evaluation of enhancing action on glucose uptake, and also as the evaluation of insulin-mimetic action, the amount of 2-deoxyglucose uptake into mature adipocytes stimulated with the sample in the adipocytes was determined.
After the termination of the culture, the medium was removed, and the cells were washed twice with a 0.1% (w/v) bovine serum albumin (manufactured by Sigma, A8022)-containing Dulbecco's modified Eagle's medium. Thereafter, 1 mL of the same medium was put to each well. The cells were cultured overnight at 37° C. in the presence of 5% carbon dioxide gas. After the overnight culture, the cells were washed twice with a HEPES buffered saline (140 mM NaCl, 5 mM KCl, 2.5 mM MgSO4, 1 mM CaCl2, 20 mM HEPES-Na (pH 7.4)), and 0.9 mL of the same buffer was added thereto. The cells were cultured at 37° C. for 75 minutes. […] […] Thereafter, 100 μL of a HEPES buffered saline containing 2-deoxy-[1,2-^3H(N)]-glucose (manufactured by PerkinElmer Life Sciences Inc., NET549A) and 1 mM 2-deoxyglucose (manufactured by Nacalai Tesque, Inc., 10722-11) was added thereto at a final concentration of 0.5 μCi/mL, and the cells were further cultured at 37° C. for 10 minutes. After the termination of the culture, the supernatant was removed, the cells were washed three times with a phosphate buffer cooled to 4° C., and 0.5 mL of a 1% Nonidet P-40-containing phosphate buffer was added to lyse the cells, whereby 2-deoxy-[1,2-^3H(N)]-glucose taken into the cells was eluted. The radioactivity was determined with a liquid scintillation counter LS6500 (manufactured by Beckmann) using 25 μL of the supernatant with Ultima Gold (manufactured by PerkinElmer Life Sciences Inc., 6013329) as a scintillation cocktail.

[2] = tested on: mature adipocytes (3T3-L1 cells); experiment: Synergistic enhancing action by polygodial and insulin on glucose uptake; assay type: cell-based; conditions: FIG. 21
Method: The amount of 2-deoxyglucose uptake into mature adipocytes stimulated with the sample in the adipocytes was determined partly in accordance with the method described in Example 1 as the evaluation of synergistic enhancing action by a low-concentration polygodial and a low-concentration insulin on glucose uptake.
The mature adipocytes were prepared according to the method described in Example 1.
After the termination of the culture, the medium was removed, and the cells were washed twice with a Dulbecco's modified Eagle's medium containing 0.1% (w/v) bovine serum albumin. Thereafter, the cells were cultured at 37° C. overnight in the presence of 5% carbonic dioxide gas. After the overnight culture, the cells were washed twice with a HEPES buffered saline (140 mM NaCl, 5 mM KCl, 2.5 mM MgSO4, 1 mM CaCl2, 20 mM HEPES-Na (pH 7.4)). The amount 0.9 mL of the same buffer was added thereto. The cells were cultured at 37° C. for 45 minutes. Subsequently, polygodial was added thereto so as to have a final concentration of 300 nM, and insulin was added thereto so as to have a final concentration of 0.05 μg/mL. The cells were further cultured for 30 minutes. […] In addition, a group without addition of the sample was used as a negative control. Thereafter, the amount of 2-deoxy-[1,2-^3H(N)]-glucose taken into the adipocytes was determined in the same manner as in the method described in Example 1.

[3] = tested on: glucose transporter (mature adipocytes); experiment: Influence of cytochalasin B on 2-deoxyglucose uptake in mature adipocytes; assay type: cell-based
Method: Specifically, as a sample, there was set a group with addition of a dimethyl sulfoxide solution of polygodial so as to have a final concentration of 3 μM. […] Furthermore, in each group, there was set a group with addition of cytochalasin B (manufactured by Nacalai Tesque, Inc., 10435-81) so as to have a final concentration 40 μM at the same time as the time of addition of the sample and insulin. Thereafter, the amount of 2-deoxy-[1,2-^3H(N)]-glucose taken into the adipocytes was determined in the same manner.

[4] = tested on: KK-Ay mice
Method: Pathological amelioration of polygodial was examined using a type II diabetes model mice. Experiments were carried out with ten male 5-week old KK-Ay mice (CLEA Japan, Inc.) per group. Polygodial was dissolved in an olive oil so as to have a concentration of 0.03%, and the solution was forcibly orally administered to the mice once a day at 1 mg/kg weight for consecutive days. An olive oil was administered to each of mice in the control group at 3.3 mL/kg weight in the same manner. On the day before the beginning of administration and on the twenty-first day, blood was collected from the vein of mouse tails, and a blood glucose level was determined with a simple blood glucose meter, ACCU-CHEK Compact (manufactured by Roche Diagnostics K.K.). In addition, on the twenty-second day, blood was collected from the abdominal aorta, and the insulin concentration in serum was determined with Lebis Insulin Kit (manufactured by Shibayagi Co., Ltd.).

[5] = tested on: ICR mice; conditions: for Blood Glucose Level, Before Administration of Sample: ICR mice fasted 18 hours, Mean ± Standard Error; for Blood Glucose Level, Before Glucose Tolerance Test: 1 hour after
Method: After fasting the mice for 18 hours, polygodial was dissolved in an olive oil so as to have a concentration of 0.3%, and the solution was forcibly orally administered to the mice at 10 mg/kg weight. An olive oil was administered to each of mice in the control group at 3.3 mL/kg weight in the same manner. After 1 hour from the administration, a 20% glucose solution was administered at 2 g/kg weight. Here, the glucose was administered in two ways, forcible oral administration and intraperitoneal administration. Before administration of the sample, before the glucose tolerance test, and after given periods of time after the glucose tolerance test, blood was collected from the vein of mouse tails, and a blood glucose level was determined.

[6] = tested on: mouse; experiment: Single-dose oral toxicity in mouse; assay type: in vivo; conditions: 1 g/kg weight
Method: No toxicity is found even when the above-mentioned effective ingredient used in the present invention is administered in an effective dose for the exhibition of its action.

[7] = 1 mg/kg weight orally once a day, KK-Ay mice
[8] = polygodial 10 mg/kg orally, glucose 2 g/kg by forcible oral administration
[9] = polygodial 10 mg/kg orally, glucose 2 g/kg by intraperitoneal administration

Question: Which results are given for `CC1(C)CCC[C@]2(C)[C@@H](C=O)C(C=O)=CC[C@@H]12` [polygodial]?
Answer: 2-deoxy-[1,2-3H(N)]-glucose uptake compared to the negative control ([1]; final concentration 3 μM, 1 μM, 0.3 μM or 0.1 μM, FIG. 1): enhancement of 2-deoxy-[1,2-^3H(N)]-glucose uptake was found; enhancing action on glucose uptake by simultaneous addition with insulin ([2]; polygodial 300 nM added simultaneously with insulin 0.05 μg/mL, versus either alone): synergistically increase; 2-deoxy-[1,2-3H(N)]-glucose uptake compared to the negative control ([2]; polygodial 300 nM alone): enhancement of 2-deoxy-[1,2-^3H(N)]-glucose uptake was found; 2-deoxy-[1,2-3H(N)]-glucose uptake compared to the negative control [3]: enhancement of 2-deoxy-[1,2-^3H(N)]-glucose uptake was found; mediation of the enhancing action on glucose uptake [3]: mediated by a glucose transporter; action of ameliorating insulin resistance [4, 7]: action of ameliorating insulin resistance was found; blood glucose level (in words) [4, 7]: lowered; insulin concentration (in words) [4, 7]: lowered; Blood Glucose Level, Twenty-First Day ([4]; 1 mg/kg weight orally once a day, twenty-first day, KK-Ay mice, Mean ± Standard Error): 231 ± 36 mg/dL; Insulin (concentration in serum) ([4]; 1 mg/kg weight orally once a day, twenty-second day, KK-Ay mice, Mean ± Standard Error): 8.4 ± 4 ng/mL; Blood Glucose Level, Previous Day ([4]; day before the beginning of administration, KK-Ay mice, Mean ± Standard Error): 328 ± 25 mg/dL; changes in weight and general symptoms ([4]; during the experimental period, 1 mg/kg weight orally once a day): no changes were found; Blood Glucose Level, Before Administration of Sample ([5]; glucose by forcible oral administration): 94 ± 7 mg/dL; Blood Glucose Level, Before Administration of Sample ([5]; glucose by intraperitoneal administration): 77 ± 4 mg/dL; Blood Glucose Level, Before Glucose Tolerance Test ([5]; polygodial 10 mg/kg orally, glucose by forcible oral administration): 126 ± 7 mg/dL; Blood Glucose Level, Before Glucose Tolerance Test ([5]; polygodial 10 mg/kg orally, glucose by intraperitoneal administration): 90 ± 7 mg/dL; Blood Glucose Level, 30 min. After Glucose Tolerance Test [5, 8]: 260 ± 15 mg/dL; Blood Glucose Level, 60 min. After Glucose Tolerance Test [5, 8]: 224 ± 18 mg/dL; Blood Glucose Level, 120 min. After Glucose Tolerance Test [5, 8]: 138 ± 9 mg/dL; Blood Glucose Level, 30 min. After Glucose Tolerance Test [5, 9]: 300 ± 56 mg/dL; Blood Glucose Level, 60 min. After Glucose Tolerance Test [5, 9]: 263 ± 34 mg/dL; Blood Glucose Level, 120 min. After Glucose Tolerance Test [5, 9]: 126 ± 10 mg/dL; Blood Glucose Level, 180 min. After Glucose Tolerance Test [5, 9]: 84 ± 5 mg/dL; action on the elevation in the blood glucose level (in words) ([5]; polygodial 10 mg/kg weight, both oral and intraperitoneal administrations of glucose): suppressive action; deaths after oral administration [6]: no cases of deaths are found

Question: For insulin, which “2-deoxy-[1,2-3H(N)]-glucose uptake compared to the negative control” value ([1]; positive control, final concentration 1 μg/mL) is on record?
Answer: The value was “enhancement of 2-deoxy-[1,2-^3H(N)]-glucose uptake was found”.

Question: And the “2-deoxy-[1,2-3H(N)]-glucose uptake compared to the negative control” value ([2]; insulin 0.05 μg/mL alone)?
Answer: Its value is “enhancement of 2-deoxy-[1,2-^3H(N)]-glucose uptake was found”.

Question: What about the “2-deoxy-[1,2-3H(N)]-glucose uptake compared to the negative control” value ([3]; insulin 1 μg/mL, without cytochalasin B, FIG. 22) of the same molecule?
Answer: The value was “enhancement of 2-deoxy-[1,2-^3H(N)]-glucose uptake was found”.
